The results in this text go back to US20110117189A1, “OPHTHALMIC COMPOSITIONS FOR TREATING PATHOLOGIES OF THE POSTERIOR SEGMENT OF THE EYE” (S.I.F.I. Societa' Industria Farmaceutica Italiana S.P.A., priority 2008, published 2011).

Structures are written as SMILES.

A short description of the data set: In-vivo pharmacokinetic test: ocular distribution of dexamethasone after single administration to the conjunctival sac (LC/MS/MS). More on the design: species or system pigmented rabbits. The note with it: treated and non-treated eyes. As for the experimental part: Dexamethasone concentration in ocular tissues was determined by a LC/MS/MS method.
Two experiments were carried out on male pigmented rabbits weighing 1.8-2.2 kg divided into 2 treatment groups, of which only one eye was treated with: 50 μl of the composition containing dexamethasone sodium phosphate in 1% xanthan base (Group I) or 50 μl of dexamethasone sodium phosphate in solution (Group II). In the first experiment the animals were then killed at the following times: 30, 60, 90, 120, 180 and 240 minutes after treatment (n=6 animals for each time point). In the second experiment the animals were killed at these times: 15, 30 and 60 minutes after treatment (n=4 animals for each time point). The active principle was determined in the aqueous humour, vitreous, retina-choroid and plasma after suitable extraction from the biological tissue, by a LC/MS/MS method.

Take `C[C@@H]1C[C@H]2[C@@H]3CCC4=CC(=O)C=C[C@]4(C)[C@@]3(F)[C@@H](O)C[C@]2(C)[C@@]1(O)C(=O)CO` [dexamethasone]: the “Concentrations of dexamethasone in the vitreous” value is given as “less than 10 ng/ml”.
